Experimental data taken from PMC5583591, “The N-terminal Region of Nisin Is Important for the BceAB-Type ABC Transporter NsrFP from Streptococcus agalactiae COH1” (Frontiers in Microbiology, 2017).

Tests used:
Format in all cases: cell-based, Lactococcus lactis
NZ9000NsrFP = experiment: Growth inhibition (IC50), strain expressing NsrFP; conditions: IC50 against NZ9000NsrFP divided by IC50 against NZ9000Cm
Source text: The nsrfp gene from S. agalactiae COH1 was amplified from the chromosomal DNA using two primers (NsrFP_for 5′-[…]-3′ and NsrFP_rev 5′-[…]-3) and ligated into pIL-SV (E. coli–L. lactis shuttle vector) ([Alkhatib et al., 2014b]). The point mutation NsrFH202A was introduced by a standard mutagenesis protocol using the following primers: forward: 5′-[…]-3′; reverse: 5′-[…]-3′. The resulting plasmid was verified by sequencing and transformed into the L. lactis strain NZ9000 for expression ([Holo and Nes, 1989]) and the corresponding strains were termed NZ9000NsrFP and NZ9000NsrFH202AP. An empty vector pIL-SVCm was also transformed into the NZ9000 strain and was used as a control (that excludes any possible effect of induction of the plasmid), and this strain was called NZ9000Cm. The expression of the nsrfp gene is regulated by the TCS NisR/NisK present in the NZ9000 strain genome. […]
(§1) The plate was incubated at 30°C. After 5 h, the optical density was measured at 584 nm via 96-well plate reader BMG. The normalized optical density was plotted against the logarithm of the nisin concentration in order to calculate the IC50 of nisin and the data was evaluated using the following equation (Eq. 1): […]
We determined the IC50 value of nisin against the NZ9000Cm sensitive strain as well as the strain NZ9000NsrFP and NZ9000NsrFH202AP. […]

NZ9000NsrFH202AP = experiment: Growth inhibition (IC50), strain expressing ATP-hydrolysis-deficient NsrFH202AP; conditions: IC50 against NZ9000NsrFH202AP divided by IC50 against NZ9000Cm
Source text: (§2) The nsrfp gene from S. agalactiae COH1 was amplified from the chromosomal DNA using two primers (NsrFP_for 5′-[…]-3′ and NsrFP_rev 5′-[…]-3) and ligated into pIL-SV (E. coli–L. lactis shuttle vector) ([Alkhatib et al., 2014b]). The point mutation NsrFH202A was introduced by a standard mutagenesis protocol using the following primers: forward: 5′-[…]-3′; reverse: 5′-[…]-3′. The resulting plasmid was verified by sequencing and transformed into the L. lactis strain NZ9000 for expression ([Holo and Nes, 1989]) and the corresponding strains were termed NZ9000NsrFP and NZ9000NsrFH202AP. An empty vector pIL-SVCm was also transformed into the NZ9000 strain and was used as a control (that excludes any possible effect of induction of the plasmid), and this strain was called NZ9000Cm. The expression of the nsrfp gene is regulated by the TCS NisR/NisK present in the NZ9000 strain genome.
Cells from the different expressing strains were grown overnight in GM17 supplemented with 5 μg/ml chloramphenicol in presence of 1 ng/ml nisin. The diluted cells (final OD584 was 0.1) were incubated with a serial dilution of nisin in a 96-well plate. The total volume in each well was 200 μl, consisting of 50 μl nisin and 150 μl GM17 containing the corresponding L. lactis strain.
The plate was incubated at 30°C. After 5 h, the optical density was measured at 584 nm via 96-well plate reader BMG. The normalized optical density was plotted against the logarithm of the nisin concentration in order to calculate the IC50 of nisin and the data was evaluated using the following equation (Eq. 1):
y=ODmin+ODmax−ODmin/1+10^(log(IC50)−x) ×p
The ODmax value describes the normalized optical density value where no nisin was added, while the ODmin value corresponds to the normalized optical density of the cells grown in the highest nisin concentrations. The y represents the resulted normalized optical density value and x represents the logarithmic of the nisin concentration added. The IC50 value is the concentration of nisin where the growth of the L. lactis strain is inhibited by 50% ([Abts et al., 2011]).
We determined the IC50 value of nisin against the NZ9000Cm sensitive strain as well as the strain NZ9000NsrFP and NZ9000NsrFH202AP. By dividing these two values the fold of resistance is obtained. […] Dividing these two values results in a fold of resistance of 16.7.

NZ9000Cm = experiment: Growth inhibition (IC50), nisin-sensitive control strain with empty vector; conditions: product of NSR cleavage (last six amino acids cleaved off)
Source text: as §2
Cells from the different expressing strains were grown overnight in GM17 supplemented with 5 μg/ml chloramphenicol in presence of 1 ng/ml nisin. […]
as §1

Compound | Fold of resistance NZ9000NsrFP (NZ9000NsrFP) | Fold of resistance NZ9000NsrFH202AP (NZ9000NsrFH202AP) | Fold lower activity compared with nisin (NZ9000Cm)
C/C=C(\NC(=O)[C@H](CCCCN)NC(=O)[C@H](C)NC(=O)[C@@H]1CS[C@@H](C)[C@@H](NC(=O)[C@@H]2CSC[C@@H](NC(=O)[C@H](C)NC(=O)[C@@H](N)[C@@H](C)CC)C(=O)N[C@@H](CCCCN)C(=O)N[C@@H](Cc3ccccc3)C(=O)N[C@@H](CC(C)C)C(=O)N2)C(=O)N2CCC[C@H]2C(=O)NCC(=O)N1)C(=O)NCC(=O)N[C@@H]1CSC[C@@H]2NC(=O)[C@H](Cc3ccc(O)cc3)NC(=O)[C@@H](CS/C=C\NC2=O)NC(=O)[C@H](CC(N)=O)NC(=O)[C@H](Cc2ccccc2)NC1=O [Gallidermin] | 12.5 fold | 0.9 fold | 
C=C1NC(=O)[C@H]([C@@H](C)CC)NC(=O)[C@H](NC(=O)/C(=C/C)NC(=O)[C@@H](N)[C@@H](C)CC)CSC[C@@H](C(=O)N[C@H]2C(=O)N3CCC[C@H]3C(=O)NCC(=O)N[C@H](C(=O)N[C@@H](CCCCN)C(=O)N[C@H]3C(=O)NCC(=O)N[C@@H](C)C(=O)N[C@@H](CC(C)C)C(=O)N[C@@H](CCSC)C(=O)NCC(=O)N[C@H](C(=O)N[C@@H](CC(N)=O)C(=O)N[C@@H](CCSC)C(=O)N[C@@H](CCCCN)C(=O)O)CS[C@H]3C)CS[C@H]2C)NC(=O)[C@H](CC(C)C)NC1=O [Nisin1-22] |  | 0.7 fold | 
C=C1NC(=O)[C@H]([C@@H](C)CC)NC(=O)[C@H](NC(=O)/C(=C/C)NC(=O)[C@@H](N)[C@@H](C)CC)CSC[C@@H](C(=O)N[C@H]2C(=O)N3CCC[C@H]3C(=O)NCC(=O)N[C@H](C(=O)N[C@@H](CCCCN)C(=O)N[C@H]3C(=O)NCC(=O)N[C@@H](C)C(=O)N[C@@H](CC(C)C)C(=O)N[C@@H](CCSC)C(=O)NCC(=O)N[C@H](C(=O)N[C@@H](CC(N)=O)C(=O)N[C@@H](CCSC)C(=O)N[C@@H](CCCCN)C(=O)N[C@H]4C(=O)N[C@@H](C)C(=O)N[C@H]5C(=O)N[C@@H](CS[C@H]4C)C(=O)N[C@@H](Cc4c[nH]cn4)C(=O)N[C@H](C(=O)O)CS[C@H]5C)CS[C@H]3C)CS[C@H]2C)NC(=O)[C@H](CC(C)C)NC1=O [Nisin1-28] |  | 0.4 fold | 32 fold
C=C(NC(=O)[C@@H](NC(=O)[C@H](CCCCN)NC(=O)[C@@H](NC(=O)[C@H](CO)NC(=O)[C@@H]1CS[C@@H](C)[C@H]2NC(=O)[C@H](C)NC(=O)[C@H](NC(=O)[C@H](CCCCN)NC(=O)[C@H](Cc3ccc(O)cc3)NC(=O)[C@H](CC(N)=O)NC(=O)[C@@H]3CS[C@@H](C)[C@@H](NC(=O)[C@H](CCCCN)NC(=O)[C@@H]4CS[C@@H](C)[C@@H](NC(=O)[C@@H]5CSC[C@@H](NC(=O)/C(=C/C)NC(=O)[C@@H](N)Cc6ccccc6)C(=O)N[C@@H]([C@@H](C)CC)C(=O)NC(=C)C(=O)N[C@@H](CCSC)C(=O)N5)C(=O)N5CCC[C@H]5C(=O)NCC(=O)N4)C(=O)NCC(=O)N[C@@H](C)C(=O)N[C@@H](CC(C)C)C(=O)N[C@@H](CCSC)C(=O)N/C(=C\C)C(=O)N3)[C@H](C)SC[C@H](NC2=O)C(=O)N[C@@H](Cc2c[nH]cn2)C(=O)N1)[C@@H](C)CC)C(C)C)C(=O)N[C@@H](CCCCN)C(=O)O [Nisin H] | 12.3 fold | 1.1 fold | 
